# Measurements as given in patent US20260262643A1, “HERBICIDAL BENZOXAZINES” (FMC CORPORATION, priority 2022, published 2026).
# Assays:
# kochia [1] = experiment: Test A preemergence; format: in vivo, Bassia scoparia
# Procedure, shortened: (§1)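 Greenhouse pot test, 10 days. Compound (non-phytotoxic solvent, surfactant) sprayed on soil at seeding or on seedlings at one- to two-leaf stage. Visual injury rated 0–100 against untreated plants.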
# galium = experiment: Test A postemergence; format: in vivo, Galium aparine
# Procedure, shortened: as §1
# blackgrass [2] = experiment: Test A preemergence; format: in vivo, Alopecurus myosuroides
# Procedure, shortened: as §1
# kochia [3] = experiment: Test A postemergence; format: in vivo, Bassia scoparia
# Procedure, shortened: as §1
# foxtail, giant [4] = experiment: Test A postemergence; format: in vivo, Setaria faberi
# Procedure, shortened: as §1
# ragweed [5] = experiment: Test A preemergence; format: in vivo, Ambrosia artemisiifolia
# Procedure, shortened: as §1
# wheat [6] = experiment: Test A postemergence; format: in vivo, Triticum aestivum
# Text: (§2) Seeds of plant species selected from barnyardgrass (Echinochloa crusgalli), blackgrass (Alopecurus myosuroides), corn (Zea mays), foxtail, giant (giant foxtail, Setaria faberi), goosegrass (Eleusine indica), kochia (Bassia scoparia), oat, wild (wild oat, Avena fatua), pigweed, palmer (palmer amaranth, palmer pigweed, Amaranthus palmeri), Pigweed, Redroot (redroot pigweed, Amaranthus retroflexus), ragweed (common ragweed, Ambrosia artemisiifolia), ryegrass, Italian (italian ryegrass, Lolium multiflorum), soybean (Glycine max), and wheat (Triticum aestivum) were planted into a blend of loam soil and sand and treated preemergence with a directed soil spray using test chemicals formulated in a non-phytotoxic solvent mixture which included a surfactant. At the same time, plants selected from these crops and weed species and also galium (catchweed bedstraw, Galium aparine) and horseweed (Erigeron canadensis) were planted in pots containing the same blend of loam soil and sand and treated with postemergence applications of test chemicals formulated in the same manner. Plants ranged in height from 2 to 10 cm and were in the one- to two-leaf stage for the postemergence treatment. Treated plants and untreated controls were maintained in a greenhouse for 10 days, after which time all treated plants were compared to untreated controls and visually evaluated for injury. Plant response ratings, summarized in Table A, are based on a 0 to 100 scale where 0 is no effect and 100 is complete control. A dash (-) response means no test result.
# ragweed [7] = experiment: Test A postemergence; format: in vivo, Ambrosia artemisiifolia
# Procedure, shortened: as §1
# wheat [8] = experiment: Test A preemergence; format: in vivo, Triticum aestivum
# Text: as §2
# foxtail, giant [9] = experiment: Test A preemergence; format: in vivo, Setaria faberi
# Procedure, shortened: as §1
# goosegrass [10] = experiment: Test A postemergence; format: in vivo, Eleusine indica
# Procedure, shortened: as §1
# soybean [11] = experiment: Test A postemergence; format: in vivo, Glycine max
# Text: as §2
# sedge, umbrella = experiment: Test B flooded paddy test; format: in vivo, Cyperus difformis; settings: 250 g ai/ha, Flood, 13 days, 0 to 100 scale (0 no effect, 100 complete control)
# Experimental: (§3) Plant species in the flooded paddy test selected from barnyardgrass (Echinochloa crus-galli), ducksalad (Heteranthera limosa), rice (Oryza sativa), and sedge, umbrella (small-flower umbrella sedge, Cyperus difformis) were grown to the 2-leaf stage for testing. At time of treatment, test pots were flooded to 3 cm above the soil surface, treated by application of test compounds directly to the paddy water, and then maintained at that water depth for the duration of the test. Treated plants and controls were maintained in a greenhouse for 13 days, after which time all species were compared to controls and visually evaluated. Plant response ratings, summarized in Table B, are based on a scale of 0 to 100 where 0 is no effect and 100 is complete control. A dash (-) response means no test result.
# blackgrass [12] = experiment: Test A postemergence; format: in vivo, Alopecurus myosuroides
# Procedure, shortened: as §1
# pigweed, palmer [13] = experiment: Test A postemergence; format: in vivo, Amaranthus palmeri
# Procedure, shortened: as §1
# soybean [14] = experiment: Test A preemergence; format: in vivo, Glycine max
# Text: as §2
# pigweed, palmer [15] = experiment: Test A preemergence; format: in vivo, Amaranthus palmeri
# Procedure, shortened: as §1
# goosegrass [16] = experiment: Test A preemergence; format: in vivo, Eleusine indica
# Procedure, shortened: as §1
# barnyardgrass = experiment: Test B flooded paddy test; format: in vivo, Echinochloa crus-galli; settings: 250 g ai/ha, Flood, 13 days, 0 to 100 scale (0 no effect, 100 complete control)
# Experimental: as §3
# oat, wild [17] = experiment: Test A postemergence; format: in vivo, Avena fatua
# Text: as §2
# corn [18] = experiment: Test A preemergence; format: in vivo, Zea mays
# Text: as §2
# ducksalad = experiment: Test B flooded paddy test; format: in vivo, Heteranthera limosa; settings: 250 g ai/ha, Flood, 13 days, 0 to 100 scale (0 no effect, 100 complete control)
# Experimental: as §3
# ryegrass, Italian [19] = experiment: Test A preemergence; format: in vivo, Lolium multiflorum
# Procedure, shortened: as §1
# oat, wild [20] = experiment: Test A preemergence; format: in vivo, Avena fatua
# Text: as §2
# corn [21] = experiment: Test A postemergence; format: in vivo, Zea mays
# Text: as §2
# ryegrass, Italian [22] = experiment: Test A postemergence; format: in vivo, Lolium multiflorum
# Procedure, shortened: as §1
# rice = experiment: Test B flooded paddy test; format: in vivo, Oryza sativa; settings: 250 g ai/ha, Flood, 13 days, 0 to 100 scale (0 no effect, 100 complete control)
# Experimental: as §3
# horseweed = experiment: Test A postemergence; format: in vivo, Erigeron canadensis; settings: postemergence, 10 days, visual injury, 0 to 100 scale (0 no effect, 100 complete control)
# Procedure, shortened: as §1
# [23] = 125 g ai/ha, visual injury after 10 days, 0 to 100 scale, 0 is no effect, 100 is complete control
# [24] = 500 g ai/ha, 0 to 100 scale (0 no effect, 100 complete control), 10 days
# [25] = 125 g ai/ha, postemergence, 10 days, visual injury, 0 to 100 scale (0 no effect, 100 complete control)
# [26] = 500 g ai/ha, Postemergence, 0 to 100 scale
# [27] = 500 g ai/ha, postemergence, 10 days, visual injury, 0 to 100 scale (0 no effect, 100 complete control)
compound,measurement,setting,value
CC1CN(C(=O)c2cccc(-n3cncn3)c2)c2cccc(C3CC3)c2O1 (centres unmarked) [Compound 42],"Plant response rating, Kochia",kochia [1]; [23],0
same,"Plant response rating, Kochia",kochia [1]; [24],20
same,"Plant response rating, Galium",galium; [25],50
same,"Plant response rating, Galium",galium; [26],70
same,"Plant response rating, Blackgrass",blackgrass [2]; [23],30
same,"Plant response rating, Blackgrass",blackgrass [2]; [24],60
same,"Plant response rating, Kochia",kochia [3]; [25],0
same,"Plant response rating, Kochia",kochia [3]; [26],80
same,"Plant response rating, Foxtail, Giant","foxtail, giant [4]; [25]",20
same,"Plant response rating, Foxtail, Giant","foxtail, giant [4]; [26]",70
same,"Plant response rating, Ragweed",ragweed [5]; [23],0
same,"Plant response rating, Ragweed",ragweed [5]; [24],0
same,"Plant response rating, Wheat",wheat [6]; [25],0
same,"Plant response rating, Wheat",wheat [6]; [26],20
same,"Plant response rating, Ragweed",ragweed [7]; [25],0
same,"Plant response rating, Ragweed",ragweed [7]; [26],0
same,"Plant response rating, Wheat",wheat [8]; [23],0
same,"Plant response rating, Wheat",wheat [8]; [24],20
same,"Plant response rating, Foxtail, Giant","foxtail, giant [9]; [23]",10
same,"Plant response rating, Foxtail, Giant","foxtail, giant [9]; [24]",90
same,"Plant response rating, Goosegrass",goosegrass [10]; [25],20
same,"Plant response rating, Goosegrass",goosegrass [10]; [26],30
same,"Plant response rating, Soybean",soybean [11]; [25],70
same,"Plant response rating, Soybean",soybean [11]; [26],90
same,"Plant response rating, Sedge, Umbrella","sedge, umbrella",0
same,"Plant response rating, Blackgrass",blackgrass [12]; [25],0
same,"Plant response rating, Blackgrass",blackgrass [12]; [26],40
same,"Plant response rating, Pigweed, Palmer","pigweed, palmer [13]; [25]",30
same,"Plant response rating, Pigweed, Palmer","pigweed, palmer [13]; [26]",10
same,"Plant response rating, Soybean",soybean [14]; [23],0
same,"Plant response rating, Soybean",soybean [14]; [24],0
same,"Plant response rating, Pigweed, Palmer","pigweed, palmer [15]; [23]",10
same,"Plant response rating, Pigweed, Palmer","pigweed, palmer [15]; [24]",80
same,"Plant response rating, Goosegrass",goosegrass [16]; [23],30
same,"Plant response rating, Goosegrass",goosegrass [16]; [24],90
same,"Plant response rating, Barnyardgrass",barnyardgrass,0
same,"Plant response rating, Oat, Wild","oat, wild [17]; [25]",0
same,"Plant response rating, Oat, Wild","oat, wild [17]; [26]",10
same,"Plant response rating, Corn",corn [18]; [23],0
same,"Plant response rating, Corn",corn [18]; [24],0
same,"Plant response rating, Ducksalad",ducksalad,0
same,"Plant response rating, Ryegrass, Italian","ryegrass, Italian [19]; [23]",50
same,"Plant response rating, Ryegrass, Italian","ryegrass, Italian [19]; [24]",100
same,"Plant response rating, Oat, Wild","oat, wild [20]; [23]",0
same,"Plant response rating, Oat, Wild","oat, wild [20]; [24]",50
same,"Plant response rating, Corn",corn [21]; [25],10
same,"Plant response rating, Corn",corn [21]; [26],40
same,"Plant response rating, Ryegrass, Italian","ryegrass, Italian [22]; [25]",0
same,"Plant response rating, Ryegrass, Italian","ryegrass, Italian [22]; [26]",50
same,"Plant response rating, Rice",rice,0
CCc1ncn(-c2ccc(C)c(C(=O)N3C[C@H](C)Oc4c(Cl)cccc43)c2)n1 [Compound 75],"Plant response rating, Kochia",kochia [1]; [23],80
same,"Plant response rating, Kochia",kochia [1]; [24],90
same,"Plant response rating, Galium",galium; [25],100
same,"Plant response rating, Galium",galium; [27],100
same,"Plant response rating, Kochia",kochia [3]; [25],90
same,"Plant response rating, Kochia",kochia [3]; [27],90
same,"Plant response rating, Foxtail, Giant","foxtail, giant [4]; [25]",90
same,"Plant response rating, Foxtail, Giant","foxtail, giant [4]; [27]",100
same,"Plant response rating, Ragweed",ragweed [5]; [23],0
same,"Plant response rating, Ragweed",ragweed [5]; [24],100
same,"Plant response rating, Wheat",wheat [6]; [27],60
same,"Plant response rating, Ragweed",ragweed [7]; [27],80
same,"Plant response rating, Wheat",wheat [8]; [23],30
same,"Plant response rating, Wheat",wheat [8]; [24],80
same,"Plant response rating, Foxtail, Giant","foxtail, giant [9]; [23]",100
same,"Plant response rating, Foxtail, Giant","foxtail, giant [9]; [24]",100
same,"Plant response rating, Goosegrass",goosegrass [10]; [25],70
same,"Plant response rating, Goosegrass",goosegrass [10]; [27],90
same,"Plant response rating, Soybean",soybean [11]; [27],100
same,"Plant response rating, Sedge, Umbrella","sedge, umbrella",98
same,"Plant response rating, Blackgrass",blackgrass [12]; [25],90
same,"Plant response rating, Blackgrass",blackgrass [12]; [26],90
same,"Plant response rating, Pigweed, Palmer","pigweed, palmer [13]; [27]",100
same,"Plant response rating, Soybean",soybean [14]; [23],80
same,"Plant response rating, Soybean",soybean [14]; [24],100
same,"Plant response rating, Pigweed, Palmer","pigweed, palmer [15]; [23]",100
same,"Plant response rating, Pigweed, Palmer","pigweed, palmer [15]; [24]",100
same,"Plant response rating, Goosegrass",goosegrass [16]; [23],100
same,"Plant response rating, Goosegrass",goosegrass [16]; [24],100
same,"Plant response rating, Barnyardgrass",barnyardgrass,50
same,"Plant response rating, Oat, Wild","oat, wild [17]; [27]",90
same,"Plant response rating, Corn",corn [18]; [23],40
same,"Plant response rating, Corn",corn [18]; [24],50
same,"Plant response rating, Ducksalad",ducksalad,70
same,"Plant response rating, Ryegrass, Italian","ryegrass, Italian [19]; [23]",100
same,"Plant response rating, Ryegrass, Italian","ryegrass, Italian [19]; [24]",100
same,"Plant response rating, Horseweed",horseweed; 125 g ai/ha,50
same,"Plant response rating, Horseweed",horseweed; 500 g ai/ha,70
same,"Plant response rating, Corn",corn [21]; [25],60
same,"Plant response rating, Corn",corn [21]; [27],90
same,"Plant response rating, Ryegrass, Italian","ryegrass, Italian [22]; [27]",100
same,"Plant response rating, Rice",rice,10
